A short description of assay [1]: Inhibition of hemagglutininin-tagged HIV1 Rev protein nuclear export in human HeLa cells assessed as protein localization after 12 hrs by indirect fluorescent antibody technique. Type of assay: cell-based, Human immunodeficiency virus 1.
The test system of assay [2] is HeLa. Nature of the assay: Inhibition of hemagglutininin-tagged HIV1 Rev protein nuclear export in human HeLa cells assessed as protein localization at 10 uM after 12 hrs by indirect fluorescent antibody technique. Type of assay: cell-based. The following applies: Human immunodeficiency virus 1.

Calls of active or inactive are those of the source. The calls are words filed in the database; no cut-off is given here.

`CC(=O)OCC1=CO[C@@H](OC(=O)CC(C)C)[C@H]2C1=C[C@H](OC(=O)CC(C)C)[C@]21CO1` [VALTRATE]: in assay [1], the IC50 (commonly the concentration that inhibits the measured activity by half) came to 2.5 µM.
In the case of `CC(=O)OCC1=CO[C@@H](OC(=O)CC(C)C)[C@H]2[C@@H]1C[C@H](OC(=O)CC(C)C)[C@]21CO1`, in assay [2], the inhibition result is “Active”. In addition, the half-maximal inhibitory concentration (IC50) in assay [1] stood at 4.4 µM.
